According to article PMC3527569, “Anti-Inflammatory and Vasoprotective Activity of a Retroviral-Derived Peptide, Homologous to Human Endogenous Retroviruses: Endothelial Cell Effects” (PLoS ONE, 2012):
Entries after “also recorded” stand apart in the source; their conditions may differ. Where no end group is shown, it is not given here.

Tests used:
[1] = system: carrageenan-induced DIC; experiment: Mouse carrageenan-induced DIC model, lethality; assay type: in vivo, mouse (CD-1); conditions: data not shown
Description: Groups of 10 male CD-1 mice were injected i.p. with 0.25 ml of either vehicle (PBS) or peptide in vehicle at varying times prior to the i.p. injection of 1.0 ml of carrageenan (0.45% [w/v] in PBS; Sigma). In experiments where serum cytokine levels were determined, groups of 5 mice were euthanized at 1-, 2-, 4-, 8-, and 24-h post injection of carrageenan, blood collected by cardiac puncture into heparinized syringes, and the resultant plasma stored at −80°C until assayed by ELISA. […] At 1-, 2-, 4-, and 24-h post injection of carrageenan, five mice from each group were euthanized and heparinized blood samples collected from the heart using heparinized syringes for subsequent determinations of WBC (white blood cell) counts, RBC (red blood cell) counts, or PLT (platelet) counts.

[2] = system: inflammatory accumulation of monocytes/macrophages; experiment: Mouse NaIO4-induced inflammatory peritonitis model; assay type: in vivo, mouse (CD-1); conditions: monocyte/macrophage accumulation at 48 h; for Dose Achieving Maximum Inhibition (nmoles) / Dose Achieving Maximum Inhibition (µg): CD-1 mice, agent s.c. 24 h before i.p. NaIO4; for Maximum Inhibition (%): groups of five CD-1 mice, agent s.c. 24 h before i.p. NaIO4 (5 mM, 1.0 ml), one experiment; for IC50 (nmoles) / IC50 (µg): in vivo dose per mouse, s.c. 24 h before i.p. NaIO4
Description: Effects of test compounds on the inflammatory accumulation of monocytes/macrophages or neutrophils in vivo were determined using a mouse peritonitis model. Briefly, groups of five 6–8 week old CD-1 outbred mice (Charles River; Raleigh, NC) were injected intraperitoneally (i.p.) with 1.0 ml of a sterile inflammatory stimulus (NaIO4; 5 mM in sterile isotonic saline; Sigma; St. Louis, MO). This procedure results in a dramatic accumulation of neutrophils in the peritoneal cavity which peaks at 6–8 h post injection, followed by an accumulation of monocytes/macrophages which peaks at 48–72 h post injection. Mice were euthanized by CO2 asphyxiation at either 6 h (for neutrophils) or 48 h (for monocyte/macrophages), the peritoneal cavities lavaged with two 10-ml washes of heparinized (10 u/ml; Sigma; St. Louis, MO) HBSS containing 0.1% (w/v) BSA, the washes pooled, and total and differential cells counts determined for each pooled cell suspension. Each test material was evaluated in a group of five mice, each of which was injected subcutaneously in the thigh with 0.2 ml of test material in HBSS 24 h prior to the i.p. injection of the inflammatory stimulus.

[3] = system: systolic blood pressure; experiment: SHR rat hypertension model (tail cuff); assay type: in vivo; conditions: 100 mg/kg orally (gavage), groups of 3 SHR rats, tail cuff, vs 0 h value
Description: As part of a general pharmacological screen, MN10021 was evaluated in a rat model of hypertension by MDS-PanLabs (Bothell, WA). […] Blood pressure measurements were made by tail cuff at 1, 2, and 4 h post administration of test compounds. A decrease of ≥10% of the baseline systolic blood pressure is considered significant in this assay.

[4] = qualitative ranking of the three peptides
[5] = system: dengue virus; experiment: Vascular leak in liver of mice injected with dengue virus; parameters: species or system mouse; conditions: 1 µg intraperitoneal; dengue virus i.v.; preliminary in vivo studies
[6] = system: HUVEC; experiment: Staurosporine-induced apoptosis in HUVEC (Cell Death Detection ELISA); assay type: cell-based, human; conditions: for protection against staurosporine-induced apoptosis: 50 µM peptide 3 h before staurosporine (500 nM), measured 18 h after staurosporine (Figure 11B)
Description: Apoptosis was measured in HUVEC using the Cell Death Detection ELISA^PLUS kit (Roche Diagnostics; Indianapolis, IN) according to the manufacturer's instructions. This assay is based on a quantitative sandwich-enzyme-immunoassay using mouse monoclonal antibodies directed against both DNA and histones, respectively. It allows the specific determination of mono- and oligonucleosomes in the cytoplasmic fraction of cell lysates (apoptosis) and in the supernatant of dying cells (necrosis). The apoptotic index (AI) was calculated as
where treatment refers to use of a known apoptosis- or necrosis-inducing agent (staurosporine, TNF-α).

[7] = system: iNOS mRNA; experiment: iNOS mRNA induction in HUASMC; assay type: cell-based, human; conditions: compared with MN10021
Description: (§1) Cells were cultured with various concentrations of test materials, either with or without stimulus, for varying times. The cells were collected, washed and total RNA isolated using the RNeasy Mini Kit (Qiagen; Valencia, CA). Following isolation the RNA was treated with 7 units of DNase I according to the RNase-Free DNase Set (Qiagen; Valencia, CA) protocol. Using these procedures we usually obtained ∼50 µg of total RNA/10^7 cells. cDNA was prepared from the isolated mRNAs and RT-PCR performed on the target cytokines/chemokines/growth factors using appropriate primer pairs and a control primer pair for β-actin (all from R & D Systems; Minneapolis, MN). RT-PCR was generally performed for 30 cycles for β-actin and 35–45 cycles for iNOS and VEGF.

[8] = system: endothelial nitric oxide synthase (eNOS) mRNA; experiment: RT-PCR of eNOS mRNA in HUVEC; assay type: cell-based, human; conditions: data not shown
Description: as §1

[9] = system: iNOS (inducible nitric oxide synthase) mRNA; experiment: RT-PCR of iNOS mRNA in HUVEC; assay type: cell-based, human; conditions: for induction of mRNA for iNOS in HUVEC: 50 µM peptide, 3 h, 37°C, quiescent HUVEC, RT-PCR
Description: as §1

[10] = system: nitrate in HUVEC supernatants; experiment: NO release (nitrate as nitrite) from HUVEC; assay type: cell-based, human; conditions: 50 µM peptide
Description: HUVEC were grown to 80–90% confluence in 12-well tissue culture plates using defined media provided by Cambrex and supplemented with 10% FBS. Triplicate wells were incubated with either media alone or media containing 50 µM of the indicated peptide. Supernatant samples were removed from each well at 6 h and 24 h post peptide addition and assayed for NO release as measured by the presence of nitrate (converted to nitrite) using a kit supplied by Oxford Biomedical Research (Rochester Hill, MI) according to the manufacturer's instructions.

[11] = system: inflammation; parameters: method as in earlier work; conditions: cited from earlier work
[12] = system: human monocyte chemotactic responses; parameters: method as in PMID 1634759, PMID 1534759; conditions: cited from earlier work
[13] = system: inflammation; parameters: method as in earlier work; conditions: cited from earlier work; remark: listed apart in the source
[14] = system: lymphocyte proliferation; parameters: method as in PMID 1634759, PMID 1534759; conditions: cited from earlier work

Compound: CC(=O)Nc1ccc(O)cc1 [Acetaminophen, acetaminophen]
- ability to protect mice in DIC model [1]: no success
- Dose Achieving Maximum Inhibition (nmoles) [2]: 6614 nmol
- Dose Achieving Maximum Inhibition (µg) [2]: 1000 µg
- Maximum Inhibition (%) [2]: 95%
- IC50 (nmoles) [2]: 132 nmol
- IC50 (µg) [2]: 20 µg

Compound: C[C@@H]1C[C@H]2[C@@H]3CCC4=CC(=O)C=C[C@]4(C)[C@@]3(F)[C@@H](O)C[C@]2(C)[C@@]1(O)C(=O)CO [Dexamethasone]
- ability to protect mice in DIC model [1]: no success
- Dose Achieving Maximum Inhibition (nmoles) [2]: 204 nmol
- Dose Achieving Maximum Inhibition (µg) [2]: 80 µg
- Maximum Inhibition (%) [2]: 75%

Compound: O=C(O)Cc1ccccc1Nc1c(Cl)cccc1Cl [Diclofenac, diclofenac]
- ability to protect mice in DIC model [1]: no success
- Dose Achieving Maximum Inhibition (nmoles) [2]: 314 nmol
- Dose Achieving Maximum Inhibition (µg) [2]: 100 µg
- Maximum Inhibition (%) [2]: 90%
- IC50 (nmoles) [2]: 16 nmol
- IC50 (µg) [2]: 5 µg

Compound: C[C@](N)(Cc1ccc(O)c(O)c1)C(=O)O [L-methyldopa, reference compound]
- decrease in blood pressure at 1 h [3]: 16%
- decrease in blood pressure at 2 h [3]: 23%
- decrease in blood pressure at 4 h [3]: 28%

Compound: N=C(N)NN [aminoguanidine]
- ability to protect mice in DIC model [1]: no success

Compound: COc1ccc2c(c1)c(CC(=O)O)c(C)n2C(=O)c1ccc(Cl)cc1 [indomethacin]
- ability to protect mice in DIC model [1]: no success

Compound: COc1ccc2cc([C@H](C)C(=O)O)ccc2c1 [naproxen]
- ability to protect mice in DIC model [1]: no success

Compound: CCN(CC)CCCC(C)Nc1c2ccc(Cl)cc2nc2ccc(OC)cc12 (stereo not shown) [quinacrine]
- ability to protect mice in DIC model [1]: no success

Compound: CN[C@@H]1C[C@H]2O[C@@](C)([C@@H]1OC)n1c3ccccc3c3c4c(c5c6ccccc6n2c5c31)C(=O)NC4 [staurosporine]
- ability to protect mice in DIC model [1]: no success

Compound: Ac-GLDLLFLK-NH2 [DUK0005]
- relative solubility among DUK0004, DUK0005, DUK0006 [4]: intermediate
- effect on vascular leak in the liver of dengue virus-injected mice [5]: inhibit the vascular leak
- protection against staurosporine-induced apoptosis [6]: significant protection
- effect of L-NAME pretreatment on protective effect against staurosporine-induced apoptosis ([6]; 2 mM L-NAME 5 h, then 50 µM peptide 3 h, staurosporine 500 nM ON (Figure 12)): no effect
- maximal protection against staurosporine-induced apoptosis ([6]; peptide added 3 h before staurosporine, up to 50 µM peptide, quadruplicate wells (Figure 10A, 10C)): ~40%
- induction of iNOS mRNA in HUASMC [7]: as effective as MN10021
- effect on expression of mRNA for eNOS [8]: Neither MN10021 nor DUK0005 affected
- induction of mRNA for iNOS in HUVEC [9]: most effective; also recorded: as effective as MN10021
- nitrate release (as measured by nitrite assay) from HUVEC ([10]; 6 h or ON): induced nitrate release

Compound: Ac-GLDLLYLK-NH2 [DUK0007]
- protection against staurosporine-induced apoptosis [6]: no protective effective
- induction of mRNA for iNOS in HUVEC [9]: does not induce iNOS
- effect on induction of iNOS by DUK005 when combined 1:1 ([9]; HUVEC, data not shown): inhibits the induction of iNOS
- nitrate release, percent of MN10021 ([10]; 6 h and ON incubations): ≤ 25%

Compound: GLDLLFLK [DUK0001]
- induction of mRNA for iNOS in HUVEC [9]: weak induction

Compound: GLDLLFLK-NH2 [DUK0006]
- relative solubility among DUK0004, DUK0005, DUK0006 [4]: most soluble
- induction of mRNA for iNOS in HUVEC [9]: comparable

Compound: LDLLFL [hexapeptide corresponding to the central six amino acids of DUK0005, studied by other investigators]
- anti-inflammatory activity in guinea pigs [11]: did not find this hexapeptide to be anti-inflammatory
- effect on in vitro human monocyte chemotactic responses [12]: inhibited
- anti-inflammatory activity in mice [13]: did not find this hexapeptide to be anti-inflammatory
- effect on ligand (CD3) and interleukin-2 (IL-2)-induced lymphocyte proliferation [14]: inhibited

Compound: acetyl-GLDLLFLK-acetyl [DUK0004]
- relative solubility among DUK0004, DUK0005, DUK0006 [4]: least soluble
- induction of mRNA for iNOS in HUVEC [9]: comparable
